From paper PMC9820345, “Metal Complexes of a 5-Nitro-8-Hydroxyquinoline-Proline Hybrid with Enhanced Water Solubility Targeting Multidrug Resistant Cancer Cells” (International Journal of Molecular Sciences, 2022)
Read-outs that look alike come from different tables or passages of the source.

Assays:
[1] = system: MES-SA; test: In vitro cytotoxicity, MES-SA cells (fluorescent protein readout); type: cell-based, human; settings: 144 h exposure
Text: (§1) Cell lines: all cell culture reagents were obtained from Sigma-Aldrich; plasticware was purchased from Sarstedt (Nümbrecht, Germany); Human colon Colo205 (chemo-sensitive, ATCC-CCL-222) and Colo320 (Pgp/MDR1-expressing, doxorubicin-resistant, ATCC-CCL-220.1) adenocarcinoma cell lines were purchased from LGC Promochem, Teddington, UK; MES-SA and MES-SA/Dx5 uterine sarcoma cell lines were obtained from ATCC, where they were characterized by DNA fingerprinting. The expression of the Pgp efflux pump of MES-SA/Dx5 was proven by Western blot analysis in our former report, and was also reported for the Colo320 cells. The MES-SA and MES-SA/Dx5 cells used in this study were previously engineered to express the fluorescent proteins mCherry and eGFP, respectively, by lentiviral transduction.
(§2) MES-SA cell lines were maintained in DMEM, supplemented with 10% fetal bovine serum, 5 mmol/L glutamine, and 50 units/mL penicillin and streptomycin. Cells were tested and resulted negative for mycoplasma contamination with the MycoAlert mycoplasma detection Kit (Lonza Group, Basel, Switzerland). One week prior to the cytotoxicity assays, Dx5 eGFP cells were selected in 500 nM doxorubicin for one passage to ensure the overexpression of P-glycoprotein.
(§3) Cytotoxicity assays: The tested compounds were dissolved in PBS buffer to prepare 5 mM stock solutions, which were diluted in complete culture medium.
(§4) In the case of the MES-SA and MES-SA/Dx5 cells, cell suspensions of the fluorescent cell lines were pre-mixed in a 1:1 ratio and seeded in 20 µL medium in a density of 2500 cells/well (1250 cells/well each) in a 384-well plate. After an overnight incubation, a serial dilution of the compounds was added to the plate in a final volume of 60 µL. The P-gp inhibitor tariquidar was added to the cells 15 min prior to the test compounds. After 144 h of incubation, plates were measured for the fluorescent intensity of mCherry (EX/EM: 585 nm/610 nm) and eGFP (EX/EM: 485 nm/510 nm). Cell seeding, aspiration of medium, and addition of drugs were performed by a Hamilton StarLet automated liquid handling robot.
(§5) Inhibition of the cell growth (expressed as IC50: inhibitory concentration that reduces by 50% the growth of the cells exposed to the tested compounds) was determined from the sigmoid curve where 100 − ((ODsample − ODmedium control)/(ODcell control − ODmedium control)) × 100 values were plotted against the logarithm of compound concentrations. Curves for the data obtained on Colo205 and Colo320 cells were fitted by GraphPad Prism software (2021, Graphpad Software, version 7.00, San Diego, CA, USA) using the sigmoidal dose–response model (comparing variable and fixed slopes). From the MES-SA cell data, the IC50 values were calculated by our custom program, written by J. Sessler in C#. The p values were calculated by Student’s t-test. The IC50 values were always obtained from at least three independent experiments.

[2] = system: Enterococcus faecalis (ATCC 29212); test: Antibacterial effect, MIC determination; type: cell-based; settings: visual inspection, read-out: minimum inhibitory concentration (MIC)
Experimental: (§6) Escherichia coli (ATCC 25922), Klebsiella pneumoniae (ATCC 49618) were used as Gram-negative strains; and Staphylococcus aureus (ATCC 25923, methicillin-resistant (MRSA)), and Enterococcus faecalis (ATCC 29212) strains were applied as Gram-positive bacterial cultures in the experiments. MIC values of the complexes were determined in 96-well plates based on the Clinical and Laboratory Standard Institute guidelines (CLSI guidelines). The stock solutions of the compounds (dissolved in PBS buffer using 5 mM concentration) were diluted in 100 μL of Mueller Hinton Broth. Then, 10^−4 dilution of an overnight bacterial culture in 100 μL of medium was added to each well, with the exception of the medium control wells.

[3] = system: Staphylococcus aureus (ATCC 25923, methicillin-resistant (MRSA)); test: Antibacterial effect, MIC determination; type: cell-based; settings: methicillin-resistant S. aureus (MRSA), 18 h, visual inspection, read-out: minimum inhibitory concentration (MIC)
Experimental: as §6

[4] = system: Escherichia coli (ATCC 25922); test: Antibacterial effect, MIC determination; type: cell-based; settings: visual inspection, read-out: minimum inhibitory concentration (MIC)
Experimental: as §6

[5] = system: Klebsiella pneumoniae (ATCC 49618); test: Antibacterial effect, MIC determination; type: cell-based; settings: visual inspection, read-out: minimum inhibitory concentration (MIC)
Experimental: as §6

[6] = system: Colo205; test: In vitro cytotoxicity, Colo205 cells (MTT); type: cell-based, human; settings: 72 h exposure
Text: as §1
(§7) The colon adenocarcinoma cells were cultured in RPMI 1640 medium supplemented with 10% heat-inactivated fetal bovine serum, 2 mM L-glutamine, 1 mM sodium pyruvate, and 100 mM HEPES. The cells were incubated at 37 °C, in a 5% CO2, 95% air atmosphere.
as §3
(§8) In the case of the Colo205 and Colo320 cells, two-fold serial dilutions were prepared in 100 μL medium. The semi-adherent colon adenocarcinoma cells were treated with Trypsin-Versene (EDTA) solution. They were adjusted to a density of 1 × 10^4 cells in 100 μL of RPMI 1640 medium and were added to each well, with the exception of the medium control wells. The final volume of the wells containing compounds and cells was 200 μL. The plates containing Colo205 and Colo320 cells were incubated at 37 °C for 72 h; at the end of the incubation period, 20 μL of 3-(4,5-dimethyl-2-thiazolyl)-2,5-diphenyl-2H-tetrazolium bromide (MTT) solution (from a stock solution of 5 mg/mL) was added to each well. After incubation at 37 °C for 4 h, 100 μL of sodium dodecyl sulfate (SDS) solution (10% in 0.01 M HCI) was added to each well, and the plates were further incubated at 37 °C overnight. Cell growth was determined by measuring the optical density (OD) at 540/630 nm with a Multiskan EX plate reader (Thermo Labsystems, Cheshire, WA, USA).
as §5, with “From the MES-SA cell data, the IC50 values were calculated by our custom program, written by J. Sessler in C#. The p values were calculated by Student’s t-test. The IC50 values were always obtained from at least three independent experiments.” left out

[7] = system: MES-SA/Dx5; test: In vitro cytotoxicity, MES-SA/Dx5 cells (fluorescent protein readout); type: cell-based, human; settings: for IC50: 144 h exposure; for Selectivity ratio IC50 (MES-SA)/IC50 (MES-SA/Dx5): calculated from IC50 values in Table 4
Text: as §1, §2, §3, §4, §5

[8] = system: Colo320; test: In vitro cytotoxicity, Colo320 cells (MTT); type: cell-based, human; settings: for IC50: 72 h exposure; for Selectivity ratio IC50 (Colo205)/IC50 (Colo320): calculated from IC50 values in Table 4
Text: as §1, §7, §3, §8, §5

Q: With `Cc1ccc(C(C)C)cc1.O=C(O)[C@@H]1CCC[NH+]1Cc1cc([N+](=O)[O-])c2ccc[n+]3c2c1[O][Ru-]3[Cl].[Cl-]` [RuCym-HQNO2-L-Pro, [RuCym(HQNO2-L-Pro)Cl]Cl] as the compound, how does the IC50 [1] read?
A: The IC50 was 166 ± 37 µM.

Q: What about the MIC ([2]; 18 h) of the same compound?
A: The MIC was > 100 µM.

Q: And the MIC [3]?
A: Its MIC is > 100 µM.

Q: And the MIC ([4]; 18 h)?
A: Its MIC is > 100 µM.

Q: And the MIC ([5]; 18 h)?
A: The MIC was > 100 µM.

Q: What about the IC50 [6] of the same compound?
A: The IC50 was > 100 µM.

Q: What about the IC50 [7] of the same compound?
A: Its IC50 is > 400 µM.

Q: And the “Selectivity ratio IC50 (MES-SA)/IC50 (MES-SA/Dx5)” value [7]?
A: The value was ≤ 0.42.

Q: And the IC50 [8]?
A: Its IC50 is > 100 µM.

Q: For `CC1=C(C)[C](C)([Rh]([Cl])[O]c2c(C[NH+]3CCC[C@H]3C(=O)O)cc([N+](=O)[O-])c3cccnc23)C(C)=C1C.[Cl-]` [RhCp*-HQNO2-L-Pro, [RhCp*(HQNO2-L-Pro)Cl]Cl], which IC50 [1] is on record?
A: The IC50 was 167 ± 38 µM.

Q: What about the MIC ([2]; 18 h) of the same compound?
A: The MIC was > 100 µM.

Q: What about the MIC [3] of the same compound?
A: The MIC was 50 µM.

Q: And the MIC ([4]; 18 h)?
A: Its MIC is > 100 µM.

Q: And the MIC ([5]; 18 h)?
A: The MIC was > 100 µM.

Q: And the IC50 [6]?
A: Its IC50 is 35 ± 1 µM.

Q: And the IC50 [7]?
A: Its IC50 is 106 ± 8 µM.

Q: And the “Selectivity ratio IC50 (MES-SA)/IC50 (MES-SA/Dx5)” value [7]?
A: The value was 1.58.

Q: What about the IC50 [8] of the same compound?
A: The IC50 was 29.8 ± 0.2 µM.

Q: And the “Selectivity ratio IC50 (Colo205)/IC50 (Colo320)” value [8]?
A: The value was 1.16.

Q: Which results are given for `O=C(O)[C@@H]1CCCN1Cc1cc([N+](=O)[O-])c2cccnc2c1O` [HQNO2-L-Pro, (2S)-1-((8-hydroxy-5-nitroquinolin-7-yl)methyl)pyrrolidin-1-ium-2-carboxylate]?
A: IC50 ([1]; Homo sapiens, MES-SA): 226 ± 17 µM; MIC ([2]; ATCC29212, 18 h): > 100 µM; MIC ([3]; Staphylococcus aureus): > 100 µM; MIC ([4]; ATCC25922, 18 h): > 100 µM; MIC ([5]; ATCC49618, 18 h): > 100 µM; IC50 ([6]; Homo sapiens, COLO 205): 34 ± 1 µM; IC50 ([7]; Homo sapiens, MES-SA/Dx5): 97 ± 29 µM; Selectivity ratio IC50 (MES-SA)/IC50 (MES-SA/Dx5) [7]: 2.33; IC50 ([8]; Homo sapiens, COLO 320): 32.4 ± 0.4 µM; Selectivity ratio IC50 (Colo205)/IC50 (Colo320) [8]: 1.06
